Data: the NIST ThermoML archive (doi:10.1016/j.jct.2016.07.046)
± gives the expanded uncertainty stated by the source.

Assay: mn = molality of the nth substance listed, in mol/kg
Conditions: 87 kPa, Liquid, Vibrating tube method

SMILES: CCn1cc[n+](C)c1.O=S(=O)([O-])O [1-ethyl-3-methylimidazolium hydrogen sulfate] + O
- mass density (293.15 K, m1 = 0.05): 1001.85 ± 3 kg/m3
- mass density (293.15 K, m1 = 0.1): 1005.19 ± 3 kg/m3
- mass density (293.15 K, m1 = 0.15): 1008.26 ± 3 kg/m3
- mass density (298.15 K, m1 = 0.05): 1000.62 ± 3 kg/m3
- mass density (298.15 K, m1 = 0.1): 1003.89 ± 3 kg/m3
- mass density (298.15 K, m1 = 0.15): 1006.91 ± 3 kg/m3
- mass density (303.15 K, m1 = 0.05): 999.15 ± 3 kg/m3
- mass density (303.15 K, m1 = 0.1): 1002.36 ± 3 kg/m3
- mass density (303.15 K, m1 = 0.15): 1005.32 ± 3 kg/m3
- mass density (308.15 K, m1 = 0.05): 997.45 ± 3 kg/m3
- mass density (308.15 K, m1 = 0.1): 1000.61 ± 3 kg/m3
- mass density (308.15 K, m1 = 0.15): 1003.53 ± 3 kg/m3
- mass density (313.15 K, m1 = 0.05): 995.6 ± 3 kg/m3
- mass density (313.15 K, m1 = 0.1): 998.69 ± 3 kg/m3
- mass density (313.15 K, m1 = 0.15): 1001.51 ± 3 kg/m3

SMILES: NCC(=O)O [2-aminoacetic acid] + O
- mass density (293.15 K, m1 = 0.0547): 999.97 ± 3 kg/m3
- mass density (293.15 K, m1 = 0.1057): 1001.59 ± 3 kg/m3
- mass density (293.15 K, m1 = 0.1546): 1003.13 ± 3 kg/m3
- mass density (293.15 K, m1 = 0.2061): 1004.74 ± 3 kg/m3
- mass density (293.15 K, m1 = 0.2531): 1006.2 ± 3 kg/m3
- mass density (293.15 K, m1 = 0.3046): 1007.78 ± 3 kg/m3
- mass density (293.15 K, m1 = 0.3538): 1009.28 ± 3 kg/m3
- mass density (293.15 K, m1 = 0.403): 1010.77 ± 3 kg/m3
- mass density (293.15 K, m1 = 0.452): 1012.24 ± 3 kg/m3
- mass density (293.15 K, m1 = 0.499): 1013.64 ± 3 kg/m3
- mass density (298.15 K, m1 = 0.0547): 998.8 ± 3 kg/m3
- mass density (298.15 K, m1 = 0.1057): 1000.41 ± 3 kg/m3
- mass density (298.15 K, m1 = 0.1546): 1001.94 ± 3 kg/m3
- mass density (298.15 K, m1 = 0.2061): 1003.54 ± 3 kg/m3
- mass density (298.15 K, m1 = 0.2531): 1004.99 ± 3 kg/m3
- mass density (298.15 K, m1 = 0.3046): 1006.56 ± 3 kg/m3
- mass density (298.15 K, m1 = 0.3538): 1008.06 ± 3 kg/m3
- mass density (298.15 K, m1 = 0.403): 1009.54 ± 3 kg/m3
- mass density (298.15 K, m1 = 0.452): 1011 ± 3 kg/m3
- mass density (298.15 K, m1 = 0.499): 1012.39 ± 3 kg/m3
- mass density (303.15 K, m1 = 0.0547): 997.39 ± 3 kg/m3
- mass density (303.15 K, m1 = 0.1057): 998.99 ± 3 kg/m3
- mass density (303.15 K, m1 = 0.1546): 1000.51 ± 3 kg/m3
- mass density (303.15 K, m1 = 0.2061): 1002.1 ± 3 kg/m3
- mass density (303.15 K, m1 = 0.2531): 1003.53 ± 3 kg/m3
- mass density (303.15 K, m1 = 0.3046): 1005.09 ± 3 kg/m3
- mass density (303.15 K, m1 = 0.3538): 1006.57 ± 3 kg/m3
- mass density (303.15 K, m1 = 0.403): 1008.04 ± 3 kg/m3
- mass density (303.15 K, m1 = 0.452): 1009.48 ± 3 kg/m3
- mass density (303.15 K, m1 = 0.499): 1010.86 ± 3 kg/m3
- mass density (308.15 K, m1 = 0.0547): 995.77 ± 3 kg/m3
- mass density (308.15 K, m1 = 0.1057): 997.36 ± 3 kg/m3
- mass density (308.15 K, m1 = 0.2061): 1000.45 ± 3 kg/m3
- mass density (308.15 K, m1 = 0.2531): 1001.88 ± 3 kg/m3
- mass density (308.15 K, m1 = 0.3046): 1003.42 ± 3 kg/m3
- mass density (308.15 K, m1 = 0.3538): 1004.89 ± 3 kg/m3
- mass density (308.15 K, m1 = 0.403): 1006.35 ± 3 kg/m3
- mass density (308.15 K, m1 = 0.452): 1007.78 ± 3 kg/m3
- mass density (308.15 K, m1 = 0.499): 1009.14 ± 3 kg/m3
- mass density (313.15 K, m1 = 0.0547): 993.92 ± 3 kg/m3
- mass density (313.15 K, m1 = 0.1057): 995.5 ± 3 kg/m3
- mass density (313.15 K, m1 = 0.1546): 997 ± 3 kg/m3
- mass density (313.15 K, m1 = 0.2531): 999.99 ± 3 kg/m3
- mass density (313.15 K, m1 = 0.3046): 1001.53 ± 3 kg/m3
- mass density (313.15 K, m1 = 0.3538): 1002.98 ± 3 kg/m3
- mass density (313.15 K, m1 = 0.403): 1004.43 ± 3 kg/m3
- mass density (313.15 K, m1 = 0.452): 1005.86 ± 3 kg/m3
- mass density (313.15 K, m1 = 0.499): 1007.22 ± 3 kg/m3

SMILES: N[C@@H](CO)C(=O)O [L-serine] + O
- mass density (293.15 K, m1 = 0.0529): 1000.59 ± 3 kg/m3
- mass density (293.15 K, m1 = 0.1005): 1002.7 ± 3 kg/m3
- mass density (293.15 K, m1 = 0.1529): 1005 ± 3 kg/m3
- mass density (293.15 K, m1 = 0.2024): 1007.15 ± 3 kg/m3
- mass density (293.15 K, m1 = 0.2541): 1009.38 ± 3 kg/m3
- mass density (293.15 K, m1 = 0.3019): 1011.42 ± 3 kg/m3
- mass density (293.15 K, m1 = 0.3525): 1013.56 ± 3 kg/m3
- mass density (293.15 K, m1 = 0.4023): 1015.65 ± 3 kg/m3
- mass density (293.15 K, m1 = 0.4535): 1017.77 ± 3 kg/m3
- mass density (293.15 K, m1 = 0.5008): 1019.72 ± 3 kg/m3
- mass density (298.15 K, m1 = 0.0529): 999.41 ± 3 kg/m3
- mass density (298.15 K, m1 = 0.1005): 1001.5 ± 3 kg/m3
- mass density (298.15 K, m1 = 0.1529): 1003.78 ± 3 kg/m3
- mass density (298.15 K, m1 = 0.2024): 1005.92 ± 3 kg/m3
- mass density (298.15 K, m1 = 0.2541): 1008.13 ± 3 kg/m3
- mass density (298.15 K, m1 = 0.3019): 1010.15 ± 3 kg/m3
- mass density (298.15 K, m1 = 0.3525): 1012.27 ± 3 kg/m3
- mass density (298.15 K, m1 = 0.4023): 1014.34 ± 3 kg/m3
- mass density (298.15 K, m1 = 0.4535): 1016.44 ± 3 kg/m3
- mass density (298.15 K, m1 = 0.5008): 1018.37 ± 3 kg/m3
- mass density (303.15 K, m1 = 0.0529): 997.99 ± 3 kg/m3
- mass density (303.15 K, m1 = 0.1005): 1000.06 ± 3 kg/m3
- mass density (303.15 K, m1 = 0.1529): 1002.33 ± 3 kg/m3
- mass density (303.15 K, m1 = 0.2024): 1004.45 ± 3 kg/m3
- mass density (303.15 K, m1 = 0.2541): 1006.64 ± 3 kg/m3
- mass density (303.15 K, m1 = 0.3019): 1008.65 ± 3 kg/m3
- mass density (303.15 K, m1 = 0.3525): 1010.76 ± 3 kg/m3
- mass density (303.15 K, m1 = 0.4023): 1012.81 ± 3 kg/m3
- mass density (303.15 K, m1 = 0.4535): 1014.9 ± 3 kg/m3
- mass density (303.15 K, m1 = 0.5008): 1016.82 ± 3 kg/m3
- mass density (308.15 K, m1 = 0.0529): 996.36 ± 3 kg/m3
- mass density (308.15 K, m1 = 0.1005): 998.42 ± 3 kg/m3
- mass density (308.15 K, m1 = 0.1529): 1000.67 ± 3 kg/m3
- mass density (308.15 K, m1 = 0.2024): 1002.77 ± 3 kg/m3
- mass density (308.15 K, m1 = 0.2541): 1004.94 ± 3 kg/m3
- mass density (308.15 K, m1 = 0.3019): 1006.94 ± 3 kg/m3
- mass density (308.15 K, m1 = 0.3525): 1009.04 ± 3 kg/m3
- mass density (308.15 K, m1 = 0.4023): 1011.08 ± 3 kg/m3
- mass density (308.15 K, m1 = 0.4535): 1013.16 ± 3 kg/m3
- mass density (308.15 K, m1 = 0.5008): 1015.07 ± 3 kg/m3
- mass density (313.15 K, m1 = 0.0529): 994.5 ± 3 kg/m3
- mass density (313.15 K, m1 = 0.1005): 996.54 ± 3 kg/m3
- mass density (313.15 K, m1 = 0.1529): 998.77 ± 3 kg/m3
- mass density (313.15 K, m1 = 0.2024): 1000.85 ± 3 kg/m3
- mass density (313.15 K, m1 = 0.2541): 1003.01 ± 3 kg/m3
- mass density (313.15 K, m1 = 0.3019): 1004.99 ± 3 kg/m3
- mass density (313.15 K, m1 = 0.3525): 1007.07 ± 3 kg/m3
- mass density (313.15 K, m1 = 0.4023): 1009.11 ± 3 kg/m3
- mass density (313.15 K, m1 = 0.4535): 1011.18 ± 3 kg/m3
- mass density (313.15 K, m1 = 0.5008): 1013.07 ± 3 kg/m3
